The values that follow come from patent US11780827B2, “Substituted 3-phenoxyazetidin-1-yl-pyrazines” (Boehringer Ingelheim International GmbH, priority 2020, dated 2023).

pEC50: −log10 of the molar value.

Usually pEC50 stands for the negative decadic logarithm of the EC50, by convention in mol/L.

In this assay the target is T1, human GPR52 (Homo sapiens, UniProt Q9Y2T5).
T1 construct: expressed in transfected cells; host or cells: CHO-K1
T1 sequence (Q9Y2T5 whole entry): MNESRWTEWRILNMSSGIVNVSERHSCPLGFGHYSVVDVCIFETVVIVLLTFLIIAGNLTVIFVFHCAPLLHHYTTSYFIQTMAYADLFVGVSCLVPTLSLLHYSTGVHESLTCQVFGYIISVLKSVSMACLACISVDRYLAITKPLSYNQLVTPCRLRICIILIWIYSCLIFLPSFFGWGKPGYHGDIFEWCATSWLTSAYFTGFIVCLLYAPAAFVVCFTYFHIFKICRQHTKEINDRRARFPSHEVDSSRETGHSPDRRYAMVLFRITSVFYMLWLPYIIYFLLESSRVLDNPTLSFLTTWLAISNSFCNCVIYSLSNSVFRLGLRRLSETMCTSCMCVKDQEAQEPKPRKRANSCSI
Kind of assay: HTRF assay for direct cAMP measurement. It counts as cell-based. The following applies: CHO-K1 cells stably expressing recombinant human GPR52, mean EC50. The protocol:
Homogeneous Time-Resolved Fluorescence (HTRF) Assay for Direct cAMP Measurement.
HTRF cAMP assays were performed using commercially available assay kits according to the manufacturer's instructions (cAMP Dynamic 2 Assay Kit; #62AM4PEJ, Cisbio Bioassays, Bedford, Mass.). An aliquot of CHO-K1 cells stably expressing recombinant human GPR52 is thawed and resuspended in cell buffer (1×PBS (w/o Ca^2+/Mg^2+)) at a density of 4×10^5 cells per mL Test compounds were solubilized in DMSO to 10 mM stock solutions and serially diluted in DMSO using 6-fold dilutions to generate 8-point dose response curves. These serially diluted samples were then diluted 1:50 in compound dilution buffer (1×PBS (w/o Ca^2+/Mg^2+) containing 0.5 mM IBMX, 0.1% BSA) to achieve a 4× stock. The diluted compounds were transferred (5 μL per well) in duplicate to the 384-well assay plate (Optiplate #6007290, PerkinElmer, Waltham, Mass.). Both a positive (reference compound) and negative (non-stimulated vehicle) control are included in each assay run in column 23. The cell suspension was subsequently dispensed into the 384-well assay plates at 15 μL per well (6000 cells) such that the compound was diluted to 1×. […] After a one-hour incubation at room temperature, 10 μL of cAMP D2 reagent followed by 10 μL of cryptate reagent (provided in the Cisbio kit) was added to each well. Plates were then incubated at room temperature for one hour prior to reading. Time-resolved fluorescence measurements were collected on an EnVision® HTRF plate reader (PerkinElmer, Waltham, Mass.). Counts from the plate reader were fit to the cAMP standard curve included on each plate to determine the amount of cAMP in each test well. The % control was calculated based on the positive control set at […]. Dose-response curves were generated from the cAMP data and analyzed using a nonlinear least squares curve-fitting program to obtain EC50 values.
On to `O=C(Nc1ccnnc1)c1nccnc1N1CC(Oc2cc(F)cc(C(F)(F)F)c2)C1` [Example 1], for which the pEC50 is 8.05.

As for `O=C(Nc1ccnnc1)c1nccnc1N1CC(Oc2cc(F)cc(Cl)c2)C1` [Example 2], the pEC50 was 8.05.

In the case of `O=C(Nc1ccnnc1)c1nccnc1N1CC(Oc2cc(F)cc(F)c2)C1` [Example 3], the pEC50 was 7.72.

Consider `O=C(Nc1ccnnc1)c1nccnc1N1CC(Oc2ccc(F)c(F)c2)C1` [Example 5], for which the pEC50 was 8.00.

`O=C(Nc1ccnnc1)c1nccnc1N1CC(Oc2cc(F)cc(C(F)F)c2)C1` [Example 6]: the pEC50 is 8.22.

`O=C(Nc1ccnnc1)c1nccnc1N1CC(Oc2ccc(F)c(Cl)c2)C1` [Example 7]: the pEC50 is 8.00.

Regarding `O=C(Nc1ccnnc1)c1nccnc1N1CC(Oc2cc(F)c(F)c(Cl)c2)C1` [Example 8], the pEC50 was 8.40.

`Cc1cc(NC(=O)c2nccnc2N2CC(Oc3cc(F)cc(C(F)(F)F)c3)C2)cnn1` [Example 9]: the pEC50 was 7.85.

On to `Cc1cc(NC(=O)c2nccnc2N2CC(Oc3ccc(F)c(Cl)c3)C2)cnn1` [Example 16], for which the pEC50 was 8.40.

Regarding `CCc1cc(NC(=O)c2nccnc2N2CC(Oc3cc(F)cc(C(F)(F)F)c3)C2)cnn1` [Example 17], the pEC50 is 7.96.

`CCc1cc(NC(=O)c2nccnc2N2CC(Oc3cc(F)cc(Cl)c3)C2)cnn1` [Example 18]: the pEC50 was 8.22.

Turning to `CCc1cc(NC(=O)c2nccnc2N2CC(Oc3ccc(F)c(Cl)c3)C2)cnn1` [Example 19], the pEC50 was 8.40.

As for `CCc1cc(NC(=O)c2nccnc2N2CC(Oc3cc(F)c(F)c(F)c3)C2)cnn1` [Example 20], the pEC50 was 8.30.

As to `CCc1cc(NC(=O)c2nccnc2N2CC(Oc3cc(F)cc(C(F)F)c3)C2)cnn1` [Example 22], the pEC50 is 8.15.

On to `CCc1cc(NC(=O)c2nccnc2N2CC(Oc3cc(F)c(F)c(Cl)c3)C2)cnn1` [Example 23], for which the pEC50 is 8.22.

As to `CCc1cc(NC(=O)c2nccnc2N2CC(Oc3cc(F)cc(F)c3)C2)cnn1` [Example 24], the pEC50 was 8.22.

For the molecule `Cc1cc(NC(=O)c2nccnc2N2CC(Oc3ccc(F)c(Cl)c3)C2)ncn1` [Example 25], the pEC50 was 8.40.

Turning to `Cc1cc(NC(=O)c2nccnc2N2CC(Oc3cc(F)c(F)c(F)c3)C2)ncn1` [Example 26], the negative-log EC50 (pEC50) is 8.22.

Turning to `Cc1cc(NC(=O)c2nccnc2N2CC(Oc3cc(F)cc(C(F)F)c3)C2)ncn1` [Example 27], the pEC50 was 7.96.

As to `Cc1cc(NC(=O)c2nccnc2N2CC(Oc3cc(F)cc(F)c3)C2)ncn1` [Example 28], the pEC50 was 7.92.

On to `Cc1cc(NC(=O)c2nccnc2N2CC(Oc3cc(F)cc(Cl)c3)C2)ncn1` [Example 30], for which the pEC50 is 8.10.

Regarding `Cc1cc(NC(=O)c2nccnc2N2CC(Oc3cc(F)cc(C(F)(F)F)c3)C2)ncn1` [Example 31], the pEC50 is 7.77.

As to `Cc1cc(NC(=O)c2nccnc2N2CC(Oc3cc(F)c(F)c(Cl)c3)C2)ncn1` [Example 32], the pEC50 is 8.10.

With `CCc1cc(NC(=O)c2nccnc2N2CC(Oc3cc(F)cc(F)c3)C2)ncn1` [Example 33], the negative-log EC50 (pEC50) is 8.00.

On to `CCc1cc(NC(=O)c2nccnc2N2CC(Oc3cc(F)cc(C(F)(F)F)c3)C2)ncn1` [Example 34], for which the pEC50 is 7.52.

On to `CCc1cc(NC(=O)c2nccnc2N2CC(Oc3cc(F)cc(Cl)c3)C2)ncn1` [Example 35], for which the pEC50 is 8.10.

As for `CCc1cc(NC(=O)c2nccnc2N2CC(Oc3cc(F)c(F)c(F)c3)C2)ncn1` [Example 36], the pEC50 is 8.22.

As for `CCc1cc(NC(=O)c2nccnc2N2CC(Oc3ccc(F)c(F)c3)C2)ncn1` [Example 37], the pEC50 was 8.52.

Consider `CCc1cc(NC(=O)c2nccnc2N2CC(Oc3cc(F)c(F)c(Cl)c3)C2)ncn1` [Example 38], for which the pEC50 was 8.05.

Take `CCc1cc(NC(=O)c2nccnc2N2CC(Oc3cc(F)cc(C(F)F)c3)C2)ncn1` [Example 39]: the pEC50 is 7.92.

On to `CCc1cc(NC(=O)c2nccnc2N2CC(Oc3ccc(F)c(Cl)c3)C2)ncn1` [Example 40], for which the pEC50 is 8.30.

For `O=C(Nc1ccncn1)c1nccnc1N1CC(Oc2cc(F)c(F)c(Cl)c2)C1` [Example 41], the pEC50 was 7.92.

For the molecule `O=C(Nc1ccncn1)c1nccnc1N1CC(Oc2cc(F)c(F)c(F)c2)C1` [Example 42], the pEC50 was 7.64.

Turning to `O=C(Nc1ccncn1)c1nccnc1N1CC(Oc2ccc(F)c(F)c2)C1` [Example 43], the pEC50 was 7.35.

For the molecule `O=C(Nc1ccncn1)c1nccnc1N1CC(Oc2ccc(F)c(Cl)c2)C1` [Example 44], the pEC50 is 7.43.

As to `O=C(Nc1cc(C(F)(F)F)ncn1)c1nccnc1N1CC(Oc2ccc(F)c(Cl)c2)C1` [Example 45], the pEC50 is 7.85.

In the case of `O=C(Nc1cc(C(F)(F)F)ncn1)c1nccnc1N1CC(Oc2ccc(F)c(F)c2)C1` [Example 46], the pEC50 was 8.15.
